Test system: 855422-203-R-J1-PDC complex spheroid viability
Experiment: Anticancer human tumor 855422-203-R-J1-PDC patient-derived bladder carcinoma cell line growth inhibition
Conditions: for IC50: curve of first compound; for viability, T/C: stronger effect = lower value
Summary of the method: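 Drug combinations with the LSD1 inhibitor iadademstat tested on tumor cells co-cultured as spheroids with endothelial cells and mesenchymal stem cells. Concentrations descended in half-log increments from clinical Cmax or 10 microM.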

[1] = second compound 0.1 µM, first compound 0.0316 µM
[2] = second compound 0.1 µM, first compound 0.1 µM
[3] = second compound 0.1 µM, first compound 0.316 µM
[4] = second compound 0.1 µM, first compound 1 µM
[5] = second compound 0.316 µM, first compound 0.0316 µM
[6] = second compound 0.316 µM, first compound 0.1 µM
[7] = second compound 0.316 µM, first compound 0.316 µM
[8] = second compound 0.316 µM, first compound 1 µM
[9] = second compound 1 µM, first compound 0.0316 µM
[10] = second compound 1 µM, first compound 0.1 µM
[11] = second compound 1 µM, first compound 0.316 µM
[12] = second compound 1 µM, first compound 1 µM
[13] = second compound 3.16 µM, first compound 0.0316 µM
[14] = second compound 3.16 µM, first compound 0.1 µM
[15] = second compound 3.16 µM, first compound 0.316 µM
[16] = second compound 3.16 µM, first compound 1 µM
[17] = second compound 10 µM, first compound 0.0316 µM
[18] = second compound 10 µM, first compound 0.1 µM
[19] = second compound 10 µM, first compound 0.316 µM
[20] = second compound 10 µM, first compound 1 µM
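Also: drug exposure lasted 7 days starting on day 3 after seeding.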
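For viability, T/C in this document: luminescence viability as percent of DMSO vehicle wells = 100%.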

COc1ccc([C@@H](O)c2cc(-c3ncnc4cc(N5CCOCC5)ccc34)c(F)cc2Cl)nn1 + NC1CCC(NC2CC2c2ccccc2)CC1
IC50 (second compound 0.1 µM): 3980 nM
IC50 (second compound 0.316 µM): 3750 nM
IC50 (second compound 1 µM): 3580 nM
IC50 (second compound 3.16 µM): 3120 nM
IC50 (second compound 10 µM): 3230 nM
viability, T/C [1]: 83.7%
viability, T/C [2]: 88.8%
viability, T/C [3]: 76.3%
viability, T/C [4]: 73.8%
viability, T/C (second compound 0.1 µM, first compound 3.16 µM): 53.1%
viability, T/C (second compound 0.1 µM, first compound 10 µM): 34.5%
viability, T/C [5]: 88.5%
viability, T/C [6]: 89.4%
viability, T/C [7]: 73.4%
viability, T/C [8]: 69.3%
viability, T/C (second compound 0.316 µM, first compound 3.16 µM): 53%
viability, T/C (second compound 0.316 µM, first compound 10 µM): 33.5%
viability, T/C [9]: 87.1%
viability, T/C [10]: 84.7%
viability, T/C [11]: 73.3%
viability, T/C [12]: 68%
viability, T/C (second compound 1 µM, first compound 3.16 µM): 53%
viability, T/C (second compound 1 µM, first compound 10 µM): 30.8%
viability, T/C [13]: 85.2%
viability, T/C [14]: 78.2%
viability, T/C [15]: 75.1%
viability, T/C [16]: 68.2%
viability, T/C (second compound 3.16 µM, first compound 3.16 µM): 48.4%
viability, T/C (second compound 3.16 µM, first compound 10 µM): 31.3%
viability, T/C [17]: 76.9%
viability, T/C [18]: 80%
viability, T/C [19]: 71.7%
viability, T/C [20]: 64.7%
viability, T/C (second compound 10 µM, first compound 3.16 µM): 50.6%
viability, T/C (second compound 10 µM, first compound 10 µM): 32.8%

Nc1ncn(C2CC(O)C(CO)S2)c(=O)n1 (stereo not given) + NC1CCC(NC2CC2c2ccccc2)CC1
IC50 (second compound 0.1 µM): > 300 nM
IC50 (second compound 0.316 µM): > 300 nM
IC50 (second compound 1 µM): > 300 nM
IC50 (second compound 3.16 µM): > 300 nM
IC50 (second compound 10 µM): > 300 nM
viability, T/C (second compound 0.1 µM, first compound 0.000949 µM): 99.6%
viability, T/C (second compound 0.1 µM, first compound 0.003 µM): 93.5%
viability, T/C (second compound 0.1 µM, first compound 0.00949 µM): 85.8%
viability, T/C (second compound 0.1 µM, first compound 0.03 µM): 90.1%
viability, T/C (second compound 0.1 µM, first compound 0.0949 µM): 93.8%
viability, T/C (second compound 0.1 µM, first compound 0.3 µM): 73%
viability, T/C (second compound 0.316 µM, first compound 0.000949 µM): 95.5%
viability, T/C (second compound 0.316 µM, first compound 0.003 µM): 89.3%
viability, T/C (second compound 0.316 µM, first compound 0.00949 µM): 89%
viability, T/C (second compound 0.316 µM, first compound 0.03 µM): 89.5%
viability, T/C (second compound 0.316 µM, first compound 0.0949 µM): 97.8%
viability, T/C (second compound 0.316 µM, first compound 0.3 µM): 80.1%
viability, T/C (second compound 1 µM, first compound 0.000949 µM): 87.1%
viability, T/C (second compound 1 µM, first compound 0.003 µM): 87.9%
viability, T/C (second compound 1 µM, first compound 0.00949 µM): 86.4%
viability, T/C (second compound 1 µM, first compound 0.03 µM): 89.2%
viability, T/C (second compound 1 µM, first compound 0.0949 µM): 86.6%
viability, T/C (second compound 1 µM, first compound 0.3 µM): 78.1%
viability, T/C (second compound 3.16 µM, first compound 0.000949 µM): 92.4%
viability, T/C (second compound 3.16 µM, first compound 0.003 µM): 91.7%
viability, T/C (second compound 3.16 µM, first compound 0.00949 µM): 84%
viability, T/C (second compound 3.16 µM, first compound 0.03 µM): 92.8%
viability, T/C (second compound 3.16 µM, first compound 0.0949 µM): 87%
viability, T/C (second compound 3.16 µM, first compound 0.3 µM): 73.4%
viability, T/C (second compound 10 µM, first compound 0.000949 µM): 89.5%
viability, T/C (second compound 10 µM, first compound 0.003 µM): 81.7%
viability, T/C (second compound 10 µM, first compound 0.00949 µM): 82.9%
viability, T/C (second compound 10 µM, first compound 0.03 µM): 82.7%
viability, T/C (second compound 10 µM, first compound 0.0949 µM): 82.1%
viability, T/C (second compound 10 µM, first compound 0.3 µM): 74.5%

O=C(C=Cn1cnc(-c2cc(C(F)(F)F)cc(C(F)(F)F)c2)n1)NNc1cnccn1 + NC1CCC(NC2CC2c2ccccc2)CC1
IC50 (second compound 0.1 µM): 34.6 nM
IC50 (second compound 0.316 µM): 54.3 nM
IC50 (second compound 1 µM): 45.6 nM
IC50 (second compound 3.16 µM): 40.4 nM
IC50 (second compound 10 µM): 45.1 nM
viability, T/C (second compound 0.1 µM, first compound 0.00316 µM): 126%
viability, T/C (second compound 0.1 µM, first compound 0.01 µM): 106%
viability, T/C [1]: 49.8%
viability, T/C [2]: 44.6%
viability, T/C [3]: 38.1%
viability, T/C [4]: 28.6%
viability, T/C (second compound 0.316 µM, first compound 0.00316 µM): 142%
viability, T/C (second compound 0.316 µM, first compound 0.01 µM): 98.2%
viability, T/C [5]: 51.2%
viability, T/C [6]: 49.5%
viability, T/C [7]: 39.5%
viability, T/C [8]: 28.1%
viability, T/C (second compound 1 µM, first compound 0.00316 µM): 128%
viability, T/C (second compound 1 µM, first compound 0.01 µM): 116%
viability, T/C [9]: 54.3%
viability, T/C [10]: 46.6%
viability, T/C [11]: 40%
viability, T/C [12]: 28.4%
viability, T/C (second compound 3.16 µM, first compound 0.00316 µM): 110%
viability, T/C (second compound 3.16 µM, first compound 0.01 µM): 106%
viability, T/C [13]: 52.8%
viability, T/C [14]: 44.3%
viability, T/C [15]: 40.9%
viability, T/C [16]: 27.9%
viability, T/C (second compound 10 µM, first compound 0.00316 µM): 99.1%
viability, T/C (second compound 10 µM, first compound 0.01 µM): 101%
viability, T/C [17]: 55.5%
viability, T/C [18]: 43.1%
viability, T/C [19]: 37.5%
viability, T/C [20]: 31.9%

Source: PubChem BioAssay AID1918943 (Molecular Pharmacology Branch, DTP, NCI, 2023)
